Results: US11364211B2, “Methods for selecting phosphatase selective and non-selective phosphatase inhibitors” (MEDICAL RESEARCH COUNCIL, priority 2015, dated 2022)
Entries after “also recorded” stand apart in the source; their conditions may differ.

What was measured:
[1] = test system: eIF2α phosphorylation in HeLa cells; assay: eIF2α phosphorylation in cells in the absence of stress (immunoblot); assay type: cell-based, human; conditions: for eIF2α phosphorylation in the absence of stress: human/HeLa cells, basal conditions, TST3 at 10 μM
Procedure: For immunoblots, HeLa cells (80,000 cells/ml) were plated in 12-well plates 24 hours before each experiment. Immediately after the indicated treatments, cells were lysed in 75 μl Laemmli Buffer, boiled at 95° C. for 5 minutes and sonicated. Proteins were separated and analysed as described (Tsaytler et al., Science, 332, 91-94, 2011) with the following antibodies: phospho-elf2α [pS52] and PPP1R15A/GADD34 (10449-1-AP; ProteinTech Group, 1/1000 dilution).
Human cells were treated with a PPP1R15B inhibitor and eIF2α phosphorylation was monitored over time. […] This was manifested between 1 and 7.5 hours after addition of the compound of Example 1. […] Indeed, the inventors noticed that PPP1R15A was induced at the late time points following addition of the compound of Example 1 (see Assay 3). […] Furthermore, this establishes that the compound of Example 1 spares PPP1R15A. This assay can serve to identify other selective PPP1R15B inhibitors.
Cells (90,000 cells/ml) were plated in a 24-well plate and treated as indicated. At the end of treatment cells were lysed in 150 μl Laemmli Buffer. Lysates were boiled at 95° C. for 5 minutes, sonicated and resolved on 4-12% Bolt Bis-Tris Plus Gels (Thermo Fisher Scientific). Proteins were transferred to the nitrocellulose membrane using the iBlot 2 system (Thermo Fisher Scientific) and analysed using the following antibodies: e-IF2α-P (44-728G, Thermo Fisher Scientific, 1:1000), e-IF2α (ab5369, Abcam, 1:1000), tubulin (T5168, Sigma-Aldrich, 1:4000), BiP (610978, BD Biosciences Pharmingen, 1:1000), ATF4 (sc-200, Santa Cruz Biotechnology, 1:500), Ppp1r15a (10449-1-AP, Proteintech, 1:1000) and Ppp1r15b (14634-1-AP, Proteintech, 1:1000). Proteins were visualized using ECL Prime (GE Healthcare).

[2] = Toxicity and weight in mice treated for 2 weeks; assay type: in vivo, mouse; design: toxicity / clinical signs: dose or concentration left out as unconfirmed
Procedure: For studying the effect of a compound of Example 1 on weight, C3H/B6 mice were gavaged orally once a day with compounds of Example 1 and mice weight was recorded daily for 2 weeks.
Mice were treated with Example 1 and monitored closely to detect any clinical signs. […] This establishes that PPP1R15B inhibition is not toxic. This was surprising and unanticipated as prior to this study one would have speculated that PPP1R15B inhibitors would be so deleterious that they would have no therapeutic potential.

[3] = test system: HD-N171-82Q mice; assay: Huntington's disease mouse model, motor performance (rotarod); assay type: in vivo; conditions: 2 mg/kg orally daily for 4 weeks
Procedure: To assess the efficacy of a compound of Example 1 in ameliorating a disease phenotype, 28-day old transgenic mice or littermate control were orally administered daily with a compound of Example 1 (2 mg/kg) or vehicle for a duration of 4 weeks. Disease progression was evaluated by weighting the mice during the treatment and by assessing their motor performances after 4 weeks of treatment.
Eight weeks old HD-N171-82Q mice and their wild-type littermates were first habituated for 1 min on a static rotor and 1 min at constant speed (4 rpm). Habituation was repeated. The test session consisted of four trials with 15 min intervals in between. For each trial 5 mice were placed on an accelerating rotor (4 to 40 rpm) and the latency to fall was recorded, with a maximum limit for individual animal set at 300 s.
To produce an experimental group HD-N171-82Q transgenic males were crossed with C3H/B6 F1 wild type females. 4 weeks old transgenic males and their wild type littermate male controls were randomized in different groups and treated with TST3 for 4 weeks.
TST3 treatment of HD-N171-82Q transgenic males and their wild type littermate male controls started at 4 weeks of age and was continued for 4 weeks before the test. […] In each trial mice were allowed to run on an accelerating rod from 4 to 40 rpm for up to 300 seconds and the latency to fall was counted. […]

[4] = test system: db/db mice; assay: Blood glucose in obese db/db mice; assay type: in vivo, mouse; conditions: 1 mg/kg once a day for three weeks
Procedure: For treatment of a metabolic disorder, Db/db animals (n=5 per condition) were treated once a day with 1 mg/kg of compound of Example 1 for three weeks. Blood glucose levels were measured with a blood glucose meter (DSI) between 9 and 10 am. Data are mean +/− S.e.m.

[5] = Tissue distribution in mice after oral gavage; assay type: in vivo, mouse
Procedure: Pharmacokinetics studies were performed by XenoGesis. TST3 was administrated orally in C57BL/6J males. Plasma samples were prepared by protein precipitation with methanol containing internal standards. Tissues were weighed and prepared by homogenisation (1:3 in phosphate buffered saline) and protein precipitated with methanol containing internal standard. Following the addition of methanol, plasma and tissue samples were placed at −20° C. for 1 hour (or overnight) to allow proteins to precipitate. The samples were then centrifuged at 2,500×g (3,400 rpm) for 20 minutes at 4° C. The supernatants were analysed by LC-MS/MS.

[6] = test system: dorsal root ganglia culture (DRG) from PMP22 mutant mice; assay: Myelination in DRG cultures from PMP22 mutant mice; assay type: cell-based, mouse; conditions: 5 nM compound, 14 days
Procedure: Dorsal root ganglia (DRG) dissected from wild-type or Pmp22Tr-J (PMP22mutant) (Henry et al., Neuropathol. Exp. Neurol., 42, 688-706, 1983) embryo at 13.5 or […] (E13.5) were cultured on collagen coated coverslips in neurobasal media supplemented with 4 g/l glucose, 2 mM L-glutamine, 2% B27 supplement and 50 ng/ml neuronal growth factor (NGF) for 7 days. To differentiate Schwann cells and induce myelination, the cultured DRGs were then maintained in C-media (MEM media supplemented with 4 g/l glucose, 2 mM L-glutamine, 10% FCS, 50 ng/ml NGF). The C-media was replaced every other day with freshly added 50 μg/ml ascorbic acid ±5 nM of compound of Example I and cultured for 14 days for myelination by the Schwann cells. The cultured DRGs were then fixed in 4% paraformaldehyde and immunostained with MBP (Rat Myelin basic protein, 1/250 dilution, ab73498).

SMILES | eIF2α phosphorylation in the absence of stress [1] | toxicity / clinical signs ([2]; once a day for 2 weeks) | weight gain ([2]; up to 10 mg/mg once a day for 2 weeks) | motor performance / disease prevention in Huntington's disease mice [3] | blood glucose [4] | tissue distribution (plasma, brain, spinal cord, pancreas, liver) [5] | eIF2α phosphorylation in the presence of GBZ ([1]; HeLa cells, TST3+GBZ at 10 μM) | time after addition at which eIF2α phosphorylation returned to basal levels ([1]; absence of stress) | eIF2α phosphorylation in the absence of stress ([1]; listed as TST3) | myelination (length of myelin internodes) [6]
N=C(N)N/N=C/c1c(Cl)cccc1Cl [Guanabenz, reference compound] | did not affect |  |  |  |  |  |  |  |  | 
[H]/N=C(\N)NN=Cc1cccc(Cl)c1Cl [Example 1, (E)-2-(2,3-dichlorobenzylidene)hydrazine-1-carboximidamide] | induced eIF2α phosphorylation; also recorded: induces a transient phosphorylation of eIF2α | undistinguishable from mice treated with placebo; also recorded: not toxic | gained weight normally | ameliorates Huntington's disease; also recorded: prevented the motor performances impairment; also recorded: preventing disease | ameliorate a metabolic disorder; also recorded: reduced the pathological high blood glucose | good tissue distribution; also recorded: extensive tissue distribution | persistently induces eIF2α phosphorylation; also recorded: rendered persistent | 10 h | transiently induces eIF2α phosphorylation; also recorded: rapidly and transiently increased eIF2α phosphorylation | improved myelination; also recorded: increased the length of myelin internodes
